32 compounds from BindingDB's records for doi:10.1016/s0968-0896(98)00004-2 (Sankyo, 1998) can be followed below.

In this test the target is T1, Dimer of Gag-Pol polyprotein [489-587] (Human immunodeficiency virus 1, UniProt P12497).
T1 construct: 489-587
The test can be described thus: Protease Inhibition Assay. The protocol:
The inhibitory activities of the compounds toward HIV-1 PR were determined by sodium dodecyl sulfate-polyacrylamide gel electrophoresis (SDS-PAGE) assay. The IC50 values of active compounds were determined using the partially purified protease and the synthetic substrate Ac-Ser-Gln-AsnTyr-Pro-Ile-Val-NH2.

The term IC50 denotes the concentration at which inhibition is half-maximal. A high value points to a need for much substance. For `Cc1cccc(C)c1C(=O)N[C@@H](Cc1ccccc1)[C@H](O)C(=O)N1C[C@@H](Cl)C[C@H]1C(=O)NC(C)(C)C`, the IC50 was found to be 3.6 nM. `CO[C@H]1OCC=C[C@H]1OC(=O)N[C@@H](Cc1ccccc1)[C@H](O)C(=O)N1C[C@@H](Cl)C[C@H]1C(=O)NC(C)(C)C` [(2S,3R)-2-methoxy-3,6-dihydro-2H-pyran-3-yl N-[(2S,3S)-4-[(2S,4S)-2-(tert-butylcarbamoyl)-4-chloropyrrolidin-1-yl]-3-hydroxy-4-oxo-1-phenylbutan-2-yl]carbamate] showed a 50% inhibitory concentration (IC50) of 35 nM. As to `CO[C@@H]1OCCC[C@@H]1OC(=O)N[C@@H](Cc1ccccc1)[C@H](O)C(=O)N1C[C@@H](Cl)C[C@H]1C(=O)NC(C)(C)C` [(2R,3S)-2-methoxyoxan-3-yl N-[(2S,3S)-4-[(2S,4S)-2-(tert-butylcarbamoyl)-4-chloropyrrolidin-1-yl]-3-hydroxy-4-oxo-1-phenylbutan-2-yl]carbamate], the IC50 came out at 37 nM.

For the compound `CC(C)(C)NC(=O)[C@@H]1C[C@H](Cl)CN1C(=O)[C@@H](O)[C@H](Cc1ccccc1)NC(=O)c1ccccc1N`, it took 39 nM to reach half-maximal inhibition (IC50).

`CC(C)(C)NC(=O)[C@@H]1C[C@H](Cl)CN1C(=O)[C@@H](O)[C@H](Cc1ccccc1)NC(=O)O[C@@H]1CO[C@H]2[C@@H]1OC[C@H]2O` [(3R,3aR,6R,6aR)-6-hydroxy-hexahydrofuro[3,2-b]furan-3-yl N-[(2S,3S)-4-[(2S,4S)-2-(tert-butylcarbamoyl)-4-chloropyrrolidin-1-yl]-3-hydroxy-4-oxo-1-phenylbutan-2-yl]carbamate] had an IC50 of 25 nM. `CC(C)(C)NC(=O)[C@@H]1C[C@H](Cl)CN1C(=O)[C@@H](O)[C@H](Cc1ccccc1)NC(=O)OC1CCCC1` [cyclopentyl N-[(2S,3S)-4-[(2S,4S)-2-(tert-butylcarbamoyl)-4-chloropyrrolidin-1-yl]-3-hydroxy-4-oxo-1-phenylbutan-2-yl]carbamate] displayed an IC50 of 19 nM. As for `COC1O[C@H]2[C@H](OC(=O)N[C@@H](Cc3ccccc3)[C@H](O)C(=O)N3C[C@@H](Cl)C[C@H]3C(=O)NC(C)(C)C)[C@H](OC)OC[C@H]2O1` (stereo partly drawn) [(3aR,6R,7S,7aR)-2,6-dimethoxy-hexahydro-[1,3]dioxolo[4,5-c]pyran-7-yl N-[(2S,3S)-4-[(2S,4S)-2-(tert-butylcarbamoyl)-4-chloropyrrolidin-1-yl]-3-hydroxy-4-oxo-1-phenylbutan-2-yl]carbamate], the figure is > 1000 nM.

`Cc1ccc(O)c(C)c1C(=O)N[C@@H](Cc1ccccc1)[C@H](O)C(=O)N1C[C@@H](Cl)C[C@H]1C(=O)NC(C)(C)C` [(2S,4S)-N-tert-butyl-4-chloro-1-[(2S,3S)-2-hydroxy-3-[(3-hydroxy-2,6-dimethylphenyl)formamido]-4-phenylbutanoyl]pyrrolidine-2-carboxamide]: the IC50 was 2.5 nM. The compound `CC(C)(C)NC(=O)[C@@H]1C[C@H](Cl)CN1C(=O)[C@@H](O)[C@H](Cc1ccccc1)NC(=O)c1cccc(F)c1` [3-Fluorobenzoyl-(2S,3S)-AHPBA-4(S)-Cl-Pro-NH-t-Bu] yielded an IC50 of 20 nM. The compound `CC(C)(C)NC(=O)[C@@H]1C[C@H](Cl)CN1C(=O)[C@@H](O)[C@H](Cc1ccccc1)NC(=O)c1cccc2ccccc12` [(2S,4S)-N-tert-butyl-4-chloro-1-[(2S,3S)-2-hydroxy-3-(naphthalen-1-ylformamido)-4-phenylbutanoyl]pyrrolidine-2-carboxamide] registered an IC50 of 9 nM.

In the case of `Cc1ccccc1C(=O)N[C@@H](Cc1ccccc1)[C@H](O)C(=O)N1C[C@@H](Cl)C[C@H]1C(=O)NC(C)(C)C` [2-Methylbenzoyl-(2S,3S)-AHPBA-4(S)-Cl-Pro-NH-t-Bu], the IC50 turned out to be 5.1 nM.

In turn, `CC(C)(C)NC(=O)[C@@H]1C[C@H](Cl)CN1C(=O)[C@@H](O)[C@H](Cc1ccccc1)NC(=O)c1ccccc1` [(2S,4S)-N-tert-butyl-4-chloro-1-[(2S,3S)-2-hydroxy-4-phenyl-3-(phenylformamido)butanoyl]pyrrolidine-2-carboxamide] showed an IC50 of 26 nM. Take `CC(C)(C)NC(=O)[C@@H]1C[C@H](Cl)CN1C(=O)[C@@H](O)[C@H](Cc1ccccc1)NC(=O)c1ccccc1Br` [(2S,4S)-1-[(2S,3S)-3-[(2-bromophenyl)formamido]-2-hydroxy-4-phenylbutanoyl]-N-tert-butyl-4-chloropyrrolidine-2-carboxamide]: inhibition was half-maximal at 12 nM (IC50). On to `COc1cccc(C(=O)N[C@@H](Cc2ccccc2)[C@H](O)C(=O)N2C[C@@H](Cl)C[C@H]2C(=O)NC(C)(C)C)c1O` [(2-Hydroxy-3-methoxy)benzoyl-(2S,3S) -AHPBA-4(S)-Cl-Pro-NH-t-Bu], for which the IC50 is > 1000 nM. As for `CC(C)(C)NC(=O)[C@@H]1C[C@H](Cl)CN1C(=O)[C@@H](O)[C@H](Cc1ccccc1)NC(=O)c1cccc(O)c1Br` [(2S,4S)-1-[(2S,3S)-3-[(2-bromo-3-hydroxyphenyl)formamido]-2-hydroxy-4-phenylbutanoyl]-N-tert-butyl-4-chloropyrrolidine-2-carboxamide], the IC50 was determined as 1.5 nM. Compound `CC(C)(C)NC(=O)[C@@H]1C[C@H](Cl)CN1C(=O)[C@@H](O)[C@H](Cc1ccccc1)NC(=O)O[C@H]1CCOC1` [(3S)-oxolan-3-yl N-[(2S,3S)-4-[(2S,4S)-2-(tert-butylcarbamoyl)-4-chloropyrrolidin-1-yl]-3-hydroxy-4-oxo-1-phenylbutan-2-yl]carbamate] showed an IC50 of 5.1 nM. Compound `CC(C)(C)NC(=O)[C@@H]1C[C@H](Cl)CN1C(=O)[C@@H](O)[C@H](Cc1ccccc1)NC(=O)c1ccccc1Cl` [2-Chlorobenzoyl-(2S,3S)-AHPBA-4(S)-Cl-Pro-NH-t-Bu] displayed an IC50 of 11 nM. Compound `CC(C)(C)NC(=O)[C@@H]1C[C@H](Cl)CN1C(=O)[C@@H](O)[C@H](Cc1ccccc1)NC(=O)c1ccc(O)cc1` [4-Hydroxybenzoyl-(2S,3S)-AHPBA-4(S)-Cl-Pro-NH-t-Bu] came in with an IC50 of 33 nM. As for `Cc1c(O)cccc1C(=O)N[C@@H](Cc1ccccc1)[C@H](O)C(=O)N1C[C@@H](Cl)C[C@H]1C(=O)NC(C)(C)C` [(3-Hydroxy-2-methylbenzoyl)-(2(S)-hydroxy-3(S)-amino-phenylbutanoyl)-4(S)-Cl-Pro-NH-t-Bu], the figure is 0.8 nM; as for `CC(C)(C)NC(=O)[C@@H]1C[C@H](Cl)CN1C(=O)[C@@H](O)[C@H](Cc1ccccc1)NC(=O)c1ccccc1I`, 14 nM; as for `CO[C@@H]1OCC=C[C@@H]1OC(=O)N[C@@H](Cc1ccccc1)[C@H](O)C(=O)N1C[C@@H](Cl)C[C@H]1C(=O)NC(C)(C)C` [[5(S)-[6(R)-Methoxy-5,6-dihydro-2H-pyranyl]oxy]carbonyl-(2S,3S)-AHPBA-4(S)-Cl-Pro-NH-t-Bu], 29 nM.

In turn, `CCCc1ccccc1C(=O)N[C@@H](Cc1ccccc1)[C@H](O)C(=O)N1C[C@@H](Cl)C[C@H]1C(=O)NC(C)(C)C` [(2S,4S)-N-tert-butyl-4-chloro-1-[(2S,3S)-2-hydroxy-4-phenyl-3-[(2-propylphenyl)formamido]butanoyl]pyrrolidine-2-carboxamide] had an IC50 of 29 nM. As for `CC(C)(C)NC(=O)[C@@H]1C[C@H](Cl)CN1C(=O)[C@@H](O)[C@H](Cc1ccccc1)NC(=O)OC1CCS(=O)(=O)C1` (stereo partly drawn) [[3(R,S) - (1,1 - Dioxo - tetrahydrothiophenyl)oxy]carbonyl-(2S,3S)-AHPBA-4(S)-Cl-Pro-NH-t-Bu], the figure is 11 nM; as for `CC(C)(C)NC(=O)[C@@H]1C[C@H](Cl)CN1C(=O)[C@@H](O)[C@H](Cc1ccccc1)NC(=O)OC1CCOC1` (stereo partly drawn) [[3(R,S)-(Tetrahydrofuranyl)oxy]carbonyl-(2S,3S)-AHPBA-4(S)-Cl-Pro-NH-t-Bu], 4.9 nM. To `CC(C)(C)NC(=O)[C@@H]1C[C@H](Cl)CN1C(=O)[C@@H](O)[C@H](Cc1ccccc1)NC(=O)c1ccccc1O` [(2S,4S)-N-tert-butyl-4-chloro-1-[(2S,3S)-2-hydroxy-3-[(2-hydroxyphenyl)formamido]-4-phenylbutanoyl]pyrrolidine-2-carboxamide] belongs > 1000 nM; to `CC(C)(C)NC(=O)[C@@H]1C[C@H](Cl)CN1C(=O)[C@@H](O)[C@H](Cc1ccccc1)NC(=O)c1cccc(O)c1`, 9 nM; to `Cc1c(N)cccc1C(=O)N[C@@H](Cc1ccccc1)[C@H](O)C(=O)N1C[C@@H](Cl)C[C@H]1C(=O)NC(C)(C)C` [(2S,4S)-1-[(2S,3S)-3-[(3-amino-2-methylphenyl)formamido]-2-hydroxy-4-phenylbutanoyl]-N-tert-butyl-4-chloropyrrolidine-2-carboxamide], 5.4 nM. The compound `CC(C)(C)NC(=O)[C@@H]1C[C@H](Cl)CN1C(=O)[C@@H](O)[C@H](Cc1ccccc1)NC(=O)O[C@H]1CCCOC1` [(3S)-oxan-3-yl N-[(2S,3S)-4-[(2S,4S)-2-(tert-butylcarbamoyl)-4-chloropyrrolidin-1-yl]-3-hydroxy-4-oxo-1-phenylbutan-2-yl]carbamate] had an IC50 of 14 nM. The compound `CCc1c(O)cccc1C(=O)N[C@@H](Cc1ccccc1)[C@H](O)C(=O)N1C[C@@H](Cl)C[C@H]1C(=O)NC(C)(C)C` [(2S,4S)-N-tert-butyl-4-chloro-1-[(2S,3S)-3-[(2-ethyl-3-hydroxyphenyl)formamido]-2-hydroxy-4-phenylbutanoyl]pyrrolidine-2-carboxamide] registered a half-inhibitory concentration (IC50) of 0.9 nM. As for `CC(C)(C)NC(=O)[C@@H]1C[C@H](Cl)CN1C(=O)[C@@H](O)[C@H](Cc1ccccc1)NC(=O)c1ccc2ccccc2c1` [beta-Naphthoyl-(2S,3S)-AHPBA-4(S)-Cl-Pro-NH-t-Bu], the figure is 50 nM.

For the compound `CCCc1c(O)cccc1C(=O)N[C@@H](Cc1ccccc1)[C@H](O)C(=O)N1C[C@@H](Cl)C[C@H]1C(=O)NC(C)(C)C` [(2S,4S)-N-tert-butyl-4-chloro-1-[(2S,3S)-2-hydroxy-3-[(3-hydroxy-2-propylphenyl)formamido]-4-phenylbutanoyl]pyrrolidine-2-carboxamide], the IC50 worked out at 1.6 nM. To `CC(C)(C)NC(=O)[C@@H]1C[C@H](Cl)CN1C(=O)[C@@H](O)[C@H](Cc1ccccc1)NC(=O)OC1CCSC1` (stereo partly drawn) [thiolan-3-yl N-[(2S,3S)-4-[(2S,4S)-2-(tert-butylcarbamoyl)-4-chloropyrrolidin-1-yl]-3-hydroxy-4-oxo-1-phenylbutan-2-yl]carbamate] belongs 7.7 nM.
